Test results taken from patent US12123010B2, “Plants having increased tolerance to herbicides” (BASF SE, priority 2017, dated 2024).
Values joined by “and” are separate entries in the source; they are usually repeats but may differ in a detail not shown here. Equal values may be shown once.

Experiments:
[1] = target: Wild Type PPO Enzyme (Amaranthus PPO2, SEQ ID NO: 1) (Amaranthus tuberculatus, UniProt Q0NZW9); test: PPO enzyme assay (recombinant), wild type; type: biochemical
[2] = test system: Variant PPO Enzyme R128A, F420V (Amaranthus PPO2); test: biochemical; type: biochemical; conditions: variant R128A, F420V vs wild type
[3] = test system: Variant PPO Enzyme R128A, F420M (Amaranthus PPO2); type: biochemical; conditions: variant R128A, F420M vs wild type
[4] = test system: Variant PPO Enzyme L397Q, F420V (Amaranthus PPO2); type: biochemical; conditions: variant L397Q, F420V vs wild type
[5] = test system: Variant PPO Enzyme L397Q, F420M (Amaranthus PPO2); type: biochemical; conditions: variant L397Q, F420M vs wild type
[6] = test system: Variant PPO Enzyme L397Q (Amaranthus PPO2); type: biochemical; conditions: variant L397Q vs wild type
[7] = test system: Variant PPO Enzyme F420V (Amaranthus PPO2); type: biochemical; conditions: variant F420V vs wild type
[8] = test system: Variant PPO Enzyme F420M (Amaranthus PPO2); test: biochemical; type: biochemical; conditions: variant F420M vs wild type
[9] = test system: Transgenic T2 Arabidopsis plants harboring PPO inhibitor tolerance trait; test: Lab based germination assay in 48-well plates (Table i); type: in vivo, Arabidopsis thaliana; conditions: in comparison to wild type plants
[10] = test system: Transgenic T2 Arabidopsis plants and ARBTH WT MC24 non-transgenic; test: Greenhouse post spray test, injury 14 DAT (Tables ii, iii); type: in vivo, Arabidopsis thaliana;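 also: value is percent injury to the sprayed plants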
[11] = test system: Transgenic T2 or T3 Soybean plants harbouring PPO inhibitor tolerance trait and Jake non transgenic; test: Soybean greenhouse post spray, injury score 7 DAT; conditions: in vivo
Description: Soybean cv Jake is transformed as previously described by Siminszky et al., Phytochem Rev. 5:445-458 (2006). After regeneration, transformants are transplanted to soil in small pots, placed in growth chambers (16 hr day/8 hr night; 25° C. day/23° C. night; 65% relative humidity; 130-150 microE m-2 s-1) and subsequently tested for the presence of the T-DNA via Taqman analysis. After a few weeks, healthy, transgenic positive, single copy events are transplanted to larger pots and allowed to grow in the growth chamber. An optimal shoot for cutting is about 3-4 inches tall, with at least two nodes present. Each cutting is taken from the original transformant (mother plant) and dipped into rooting hormone powder (indole-3-butyric acid, IBA). The cutting is then placed in oasis wedges inside a bio-dome. The mother plant is taken to maturity in the greenhouse and harvested for seed. Wild type cuttings are also taken simultaneously to serve as negative controls. The cuttings are kept in the bio-dome for 5-7 days and then transplanted to 3 inch pots and then acclimated in the growth chamber for two more days. Subsequently, the cuttings are transferred to the greenhouse, acclimated for approximately 4 days prior to spray. […] Herbicide injury evaluations are taken at 2, 7, 14 and 21 days after treatment. […]

Sequence of Wild Type PPO Enzyme (Amaranthus PPO2, SEQ ID NO: 1) (Q0NZW9 1-534): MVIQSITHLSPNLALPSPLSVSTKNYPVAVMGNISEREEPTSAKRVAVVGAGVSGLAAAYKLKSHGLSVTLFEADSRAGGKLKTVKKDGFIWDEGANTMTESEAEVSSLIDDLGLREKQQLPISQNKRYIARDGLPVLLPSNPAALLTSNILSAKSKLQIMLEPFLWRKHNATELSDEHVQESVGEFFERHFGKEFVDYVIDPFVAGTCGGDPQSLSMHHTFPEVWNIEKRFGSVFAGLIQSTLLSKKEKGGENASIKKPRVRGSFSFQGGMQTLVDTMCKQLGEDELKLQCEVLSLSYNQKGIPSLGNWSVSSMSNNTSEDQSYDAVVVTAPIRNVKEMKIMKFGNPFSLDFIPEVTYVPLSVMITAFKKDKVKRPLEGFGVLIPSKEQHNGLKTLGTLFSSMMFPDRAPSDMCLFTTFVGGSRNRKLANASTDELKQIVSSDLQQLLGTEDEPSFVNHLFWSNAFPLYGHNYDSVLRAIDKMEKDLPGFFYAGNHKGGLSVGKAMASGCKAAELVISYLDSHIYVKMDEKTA

CCOC(=O)COc1ncccc1Oc1cc(-n2c(=O)cc(C(F)(F)F)n(C)c2=O)c(F)cc1Cl [Uracilpyridine 1, ethyl 2-[[3-[2-chloro-4-fluoro-5-[3-methyl-2,6-dioxo-4-(trifluoromethyl)pyrimiclin-1-yl]phenoxy]-2-pyridyl]oxy]acetate]
IC50 [1]: 177 pM
Tolerance Factor (R/S) [2]: 915 and 1579
Tolerance Factor (R/S) [3]: 347
Tolerance Factor (R/S) [4]: 12739
Tolerance Factor (R/S) [5]: 2418
Tolerance Factor (R/S) [6]: 13
Tolerance Factor (R/S) [7]: 374
Tolerance Factor (R/S) [8]: 215 and 265
Tolerance Factor ([9]; construct ARBTH_PPO1_S305L_Y426M (Arabidopsis thaliana)): 250
Tolerance Factor ([9]; construct ARBTH_PPO1_WT (Arabidopsis thaliana)): 50
injury (%) ([10]; Table ii, ALOMY_PPO2_R137L_F438V event F, 50 g ai/ha): 20%
injury (%) ([10]; Table ii, ALOMY_PPO2_R137L_F438V event F, 100 g ai/ha): 33%
injury (%) ([10]; Table ii, ALOMY_PPO2_R137L_F438V event F, 200 g ai/ha): 65%
injury (%) ([10]; Table ii, ALOMY_PPO2_R137L_F438V event G, 50 g ai/ha): 5%
injury (%) ([10]; Table ii, ALOMY_PPO2_R137L_F438V event G, 100 g ai/ha): 75%
injury (%) ([10]; Table ii, ALOMY_PPO2_R137L_F438V event G, 200 g ai/ha): 28%
injury (%) ([10]; Table ii, ALOMY_PPO2_TP_AMATU_PPO2_R128M_F420I event R, 50 g ai/ha): 60%
injury (%) ([10]; Table ii, ALOMY_PPO2_TP_AMATU_PPO2_R128M_F420I event R, 100 g ai/ha): 92%
injury (%) ([10]; Table ii, ALOMY_PPO2_TP_AMATU_PPO2_R128M_F420I event R, 200 g ai/ha): 84%
injury (%) ([10]; Table ii, AMATU_PPO2_R128A_F420M event Q, 50 g ai/ha): 55%
injury (%) ([10]; Table ii, AMATU_PPO2_R128A_F420M event Q, 100 g ai/ha): 60%
injury (%) ([10]; Table ii, AMATU_PPO2_R128A_F420M event Q, 200 g ai/ha): 75%
injury (%) ([10]; Table ii, AMATU_PPO2_R128M_F420I event K, 50 g ai/ha): 60%
injury (%) ([10]; Table ii, AMATU_PPO2_R128M_F420I event K, 100 g ai/ha): 73%
injury (%) ([10]; Table ii, AMATU_PPO2_R128M_F420I event K, 200 g ai/ha): 75%
injury (%) ([10]; Table ii, AMATU_PPO2_TP_hemG event R, 50 g ai/ha): 60%
injury (%) ([10]; Table ii, AMATU_PPO2_TP_hemG event R, 100 g ai/ha): 63%
injury (%) ([10]; Table ii, AMATU_PPO2_TP_hemG event R, 200 g ai/ha): 53%
injury (%) ([10]; Table ii, ARBTH WT MC24 non-transgenic, 50 g ai/ha + 1% MSO): 100%
injury (%) ([10]; Table ii, ARBTH WT MC24 non-transgenic, 100 g ai/ha + 1% MSO): 100%
injury (%) ([10]; Table ii, ARBTH WT MC24 non-transgenic, 200 g ai/ha + 1% MSO): 100%
injury (%) ([10]; Table iii, ALOMY_PPO2_R137L_F438M (unnamed lines), 50 g ai/ha): 0%
injury (%) ([10]; Table iii, AMATU_PPO2_L397Q_F420V (unnamed lines), 50 g ai/ha): 40% and 75%
injury (%) ([10]; Table iii, AMATU_PPO2_L397Q_F420V (unnamed lines), 100 g ai/ha): 85% and 65%
injury (%) ([10]; Table iii, AMATU_PPO2_R128A_F420I (unnamed lines), 50 g ai/ha): 60% and 70% and 75%
injury (%) ([10]; Table iii, AMATU_PPO2_R128A_F420I (unnamed lines), 100 g ai/ha): 95% and 65% and 80% and 60%
injury (%) ([10]; Table iii, AMATU_PPO2_R128A_F420L (unnamed lines), 100 g ai/ha): 60% and 90% and 95% and 80%
injury (%) ([10]; Table iii, AMATU_PPO2_R128A_F420V (unnamed lines), 50 g ai/ha): 95% and 90% and 55% and 65%
injury (%) ([10]; Table iii, AMATU_PPO2_R128A_F420V (unnamed lines), 100 g ai/ha): 80% and 95% and 98%
injury (%) ([10]; Table iii, ARBTH WT MC 24 (non-transgenic), 50 g ai/ha + 1% MSO): 100%
injury (%) ([10]; Table iii, ARBTH WT MC 24 (non-transgenic), 100 g ai/ha + 1% MSO): 100%
injury (0-9) [11]: 3 and 2 and 4 and 0 (No Injury)
